The text below walks through data of article PMC7221803, “Structure–Activity Relationships and Biological Evaluation of 7-Substituted Harmine Analogs for Human β-Cell Proliferation” (Molecules, 2020).

One test concerns the target DYRK1A (Homo sapiens, UniProt Q13627). In words: FRET-based LanthaScreen Eu Kinase Binding Assay for DYRK1A. Conditions: for IC50: 10 point LanthaScreen Eu Kinase Binding Assay; for inhibition at 0.3 µM: read-out: % DYRK1A Inhibition 300 nM; for inhibition at 1 µM: read-out: % DYRK1A Inhibition 1000 nM; for fold less potent DYRK1A inhibition as compared to harmine: relative to harmine (27 nM); for DYRK1A inhibition (result in words): in vitro at the concentrations tested (1000 nM and 300 nM). Here is the method:
Compounds were tested for DYRK1A binding activity by a commercial kinase profiling services, Life Technologies which uses the FRET-based LanthaScreen® Eu Kinase Binding Assay. Compounds were screened for DYRK1A activity at concentrations of 1000 nM and 300 nM in duplicates. The IC50 was determined by 10 point LanthaScreen® Eu Kinase Binding Assay in duplicates.

Another test concerns human β-cells. In words: Human β-cell proliferation assay (Ki67-insulin co-immunolabeling, dispersed human islets). The class given is cell-based. Conditions: for human β-cell proliferation at screening concentration: 10 μM, Ki-67-insulin co-immunolabeling after 4 days, n = 3. Here is the method:
Human pancreatic islets were obtained from the NIH/NIDDK-supported Integrated Islet Distribution Program (IIDP) Duarte, CA, USA (https://iidp.coh.org) and studied using protocols that have been published in detail. Briefly, islets were first dispersed with Accutase (Sigma, St. Louis, MO, USA) onto coverslips, and treated with vehicle (0.1% DMSO) or with harmine-related compounds in RPMI1640 complete medium for 96 h. Then the cells were then, fixed with formaldehyde and immunolabeled for insulin and Ki67 as described below. Total insulin-positive cells and cells double positive Ki67 and insulin positive cells were imaged and counted. Islets from 3–5 different adult donors were tested as described in Figure 4. At least 1000 β-cells were counted for human islet donor.

Where [1] appears, read: 1-2b at 30 μM vs harmine at 10 μM.
Where [2] appears, read: compound at 1000 nM, duplicates.

Several values for one entry are separate records, joined by “and”; a condition that tells them apart may be missing. Equal entries are not always repeated. Where two headings read alike, the source gives them in different places.

On to `COC(=O)COc1ccc2c(c1)[nH]c1c(C)nccc12` [1-2a, 2-(7-Oxy-1-methyl-9-H-b-carbolin)acetic acid methyl ester], for which the IC50 (usually the midpoint of a concentration-inhibition curve) at DYRK1A (duplicates) is 194 ± 11.7 nM. In addition, on DYRK1A, the inhibition – broadly, the percentage by which the read-out fell short of the control – at 0.3 µM was determined as 58% and the inhibition at 1 µM stood at 85%.
Turning to `COC(=O)CCOc1ccc2c(c1)[nH]c1c(C)nccc12` [1-2b, 3-(7-Oxy-1-methyl-9-H-b-carbolin)propionic acid methyl ester], the IC50 at DYRK1A (duplicates) is 89 nM and 89.7 nM. For the same molecule, the “fold less potent DYRK1A inhibition as compared to harmine” value on DYRK1A is 4 fold and ~ 3 fold. Besides, the “human β-cell proliferation at screening concentration” value with human β-cells was “exhibit human β-cell proliferation”. Also, in the test with human β-cells (setting [1]), the “human β-cell proliferation relative to harmine (in words)” value was “half that of harmine” and the “maximal human β-cell proliferation as % that of harmine” value came to 66%. Moreover, in the test on human β-cells (dose-response up to 30 μM, n = 3 human islet donors for each dose), the “human β-cell proliferation dose-response” value is given as “induced proliferation in a dose-dependent manner”.
Take `COC(=O)CCCOc1ccc2c(c1)[nH]c1c(C)nccc12` [1-2c, 4-(7-Oxy-1-methyl-9-H-b-carbolin)butnoic acid methyl ester]: on DYRK1A (compound at 300 nM, duplicates), the inhibition at 0.3 µM was found to be 47%. The inhibition at 1 µM on DYRK1A (setting [2]) was 78%.
The like results for `COC(=O)CCCCOc1ccc2c(c1)[nH]c1c(C)nccc12` [1-2d, 5-(7-Oxy-1-methyl-9-H-b-carbolin)pentanoic acid methyl ester] were, in that order, 35% and 67%.
For `COC(=O)CCCCCOc1ccc2c(c1)[nH]c1c(C)nccc12` [1-2e, 6-(7-Oxy-1-methyl-9-H-b-carbolin)hexanoic acid methyl ester], the IC50 on DYRK1A (duplicates) amounted to 134 ± 4.55 nM. Further, at DYRK1A, the inhibition at 0.3 µM stood at 56% and the inhibition at 1 µM came out at 81%.
With `Cc1nccc2c1[nH]c1cc(OCCNC(=O)OC(C)(C)C)ccc12` [1-2k, 2-(7-Oxy-1-methyl-9-H-b-carbolin)ethyl tert-butyl carbamate], the inhibition at 0.3 µM on DYRK1A (compound at 300 nM, duplicates) was found to be 35%. For the same molecule, the inhibition at 1 µM at DYRK1A (setting [2]) turned out to be 61%.
As for `Cc1nccc2c1[nH]c1cc(OCCCNC(=O)OC(C)(C)C)ccc12` [1-2l, 3-(7-Oxy-1-methyl-9-H-b-carbolin)propyl tert-butyl carbamate], the inhibition at 0.3 µM at DYRK1A (compound at 300 nM, duplicates) was 24%. Moreover, the inhibition at 1 µM on DYRK1A (setting [2]) was 50%.
The like results for `Cc1nccc2c1[nH]c1cc(OCCCCNC(=O)OC(C)(C)C)ccc12` [1-2m, 4-(7-Oxy-1-methyl-9-H-b-carbolin)butyl tert-butyl carbamate] were, in that order, 31% and 58%.
Take `Cc1nccc2c1[nH]c1cc(OCCOCCNC(=O)OC(C)(C)C)ccc12` [1-2n, 2-((7-Oxy-1-methyl-9-H-b-carbolin)ethoxy)ethyl tert-butyl carbamate]: at DYRK1A (compound at 300 nM, duplicates), the inhibition at 0.3 µM was found to be 27%. For the same molecule, the inhibition at 1 µM at DYRK1A (setting [2]) was 48%.
For `COCCOc1ccc2c(c1)[nH]c1c(C)nccc12` [1-2o, 2-(7-oxy-1-methyl-9-H-b-carbolin)methoxyethyl], at DYRK1A, the “DYRK1A inhibition (result in words)” value is given as “not favorable for the DYRK1A inhibition”, the inhibition at 0.3 µM was found to be 23% and the inhibition at 1 µM was determined as 48%.
For the molecule `CCOCCOc1ccc2c(c1)[nH]c1c(C)nccc12` [1-2p, 3-(7-Oxy-1-methyl-9-H-b-carbolin)ethoxyethyl], the inhibition at 0.3 µM at DYRK1A (compound at 300 nM, duplicates) worked out at 19%. In addition, the inhibition at 1 µM at DYRK1A (setting [2]) came out at 37%. Further, at DYRK1A, the “DYRK1A inhibition (result in words)” value is on record as “not favorable for the DYRK1A inhibition”.
Consider `Cc1nccc2c1[nH]c1cc(OCC(N)=O)ccc12` [1-3a, 2-(7-Oxy-1-methyl-9-H-b-carbolin)acetamide], for which, at DYRK1A (compound at 300 nM, duplicates), the inhibition at 0.3 µM came to 10%. Moreover, the inhibition at 1 µM at DYRK1A (setting [2]) came out at 30%.
In turn, `Cc1nccc2c1[nH]c1cc(OCCC(N)=O)ccc12` [1-3b, 3-(7-Oxy-1-methyl-9-H-b-carbolin)propionamide] gave an IC50 on DYRK1A (duplicates) of 91 nM. The “fold less potent DYRK1A inhibition as compared to harmine” value at DYRK1A is recorded as ~ 3 fold. In the test with human β-cells, the “human β-cell proliferation at screening concentration” value was “exhibit human β-cell proliferation”.
As for `Cc1nccc2c1[nH]c1cc(OCCCC(N)=O)ccc12` [1-3c, 4-(7-Oxy-1-methyl-9-H-b-carbolin)butanamide], the inhibition at 0.3 µM on DYRK1A (compound at 300 nM, duplicates) was found to be 32%. Besides, the inhibition at 1 µM at DYRK1A (setting [2]) amounted to 58%.
`Cc1nccc2c1[nH]c1cc(OCCCCC(N)=O)ccc12` [1-3d, 5-(7-Oxy-1-methyl-9-H-b-carbolin)pentanamide]: the inhibition at 0.3 µM at DYRK1A (compound at 300 nM, duplicates) is 67%. Moreover, the inhibition at 1 µM at DYRK1A (setting [2]) worked out at 88%.
The like results for `Cc1nccc2c1[nH]c1cc(OCCCCCC(N)=O)ccc12` [1-3e, 6-(7-Oxy-1-methyl-9-H-b-carbolin)hexanamide] were, in that order, 39% and 67%.
In the case of `Cc1nccc2c1[nH]c1cc(OCC(=O)O)ccc12` [1-4a, 2-(7-Oxy-1-methyl-9-H-b-carbolin)acetic acid], on DYRK1A, the inhibition at 0.3 µM was 3% and the inhibition at 1 µM was 6%.
Consider `Cc1nccc2c1[nH]c1cc(OCCC(=O)O)ccc12` [1-4b, 3-(7-Oxy-1-methyl-9-H-b-carbolin)propionic acid], for which, on DYRK1A (duplicates), the IC50 worked out at 1810 ± 101 nM.
With `Cc1nccc2c1[nH]c1cc(OCCCC(=O)O)ccc12` [1-4c, 4-(7-Oxy-1-methyl-9-H-b-carbolin)butnoic acid], at DYRK1A (compound at 300 nM, duplicates), the inhibition at 0.3 µM was found to be 6%. Moreover, at DYRK1A (setting [2]), the inhibition at 1 µM is 19%.
For `Cc1nccc2c1[nH]c1cc(OCCCCC(=O)O)ccc12` [1-4d, 5-(7-Oxy-1-methyl-9-H-b-carbolin)pentanoic acid], in that order: 20% and 44%.
Take `Cc1nccc2c1[nH]c1cc(OCCCCCC(=O)O)ccc12` [1-4e, 6-(7-Oxy-1-methyl-9-H-b-carbolin)hexanoic acid]: the inhibition at 0.3 µM on DYRK1A (compound at 300 nM, duplicates) stood at 43%. Further, the inhibition at 1 µM at DYRK1A (setting [2]) turned out to be 74%.
For `Cc1nccc2c1[nH]c1cc(OCCN)ccc12` [1-5a, 2-(7-Oxy-1-methyl-9-H-b-carbolin)ethylamine hydrochloric acid], in that order: 12% and 25%.
As to `Cc1nccc2c1[nH]c1cc(OCCCN)ccc12` [1-5b, 3-(7-Oxy-1-methyl-9-H-b-carbolin)propylamine hydrochloric acid], on DYRK1A, the inhibition at 0.3 µM turned out to be 8% and the inhibition at 1 µM worked out at 28%.
In the case of `Cc1nccc2c1[nH]c1cc(OCCCCN)ccc12` [1-5c, 4-(7-Oxy-1-methyl-9-H-b-carbolin)butylamine hydrochloric acid], at DYRK1A (compound at 300 nM, duplicates), the inhibition at 0.3 µM was found to be 15%. At DYRK1A (setting [2]), the inhibition at 1 µM amounted to 42%.
For `Cc1nccc2c1[nH]c1cc(OCCOCCN)ccc12` [1-5d, 2-((7-Oxy-1-methyl-9-H-b-carbolin)ethoxy)ethylamine hydrochloric acid], in that order: 15% and 32%.
As for `CC(=O)NCCOc1ccc2c(c1)[nH]c1c(C)nccc12` [1-6a, 2-(7-Oxy-1-methyl-9-H-b-carbolin)-2-acetyl-ethylamine], at DYRK1A (compound at 300 nM, duplicates), the inhibition at 0.3 µM was determined as 24%. In addition, on DYRK1A (setting [2]), the inhibition at 1 µM came out at 49%.
The like results for `CC(=O)NCCCOc1ccc2c(c1)[nH]c1c(C)nccc12` [1-6b, 3-(7-Oxy-1-methyl-9-H-b-carbolin) -2-acetyl-propylamine] were, in that order, 22% and 49%.
Regarding `CC(=O)NCCCCOc1ccc2c(c1)[nH]c1c(C)nccc12` [1-6c, 4-(7-Oxy-1-methyl-9-H-b-carbolin) -2-acetyl-butylamine], the inhibition at 0.3 µM at DYRK1A (compound at 300 nM, duplicates) is 45%. The inhibition at 1 µM at DYRK1A (setting [2]) was found to be 69%.
Consider `CC(=O)NCCOCCOc1ccc2c(c1)[nH]c1c(C)nccc12` [1-6d, 2-((7-Oxy-1-methyl-9-H-b-carbolin)ethoxy)-2-acetyl-ethylamine], for which, at DYRK1A (compound at 300 nM, duplicates), the inhibition at 0.3 µM came out at 17%. At DYRK1A (setting [2]), the inhibition at 1 µM worked out at 41%.
With `Cc1nccc2c1[nH]c1cc(N)ccc12` [1-9, 7-Amino-1-methyl-9H-b-carboline], on DYRK1A, the “DYRK1A inhibition (result in words)” value is given as “completely lost its DYRK1A inhibitory activity”, the inhibition at 0.3 µM was 8% and the inhibition at 1 µM is 21%.
As for `Cc1nccc2c1[nH]c1cc(NC(=O)c3ccccc3)ccc12` [1-11, 7-Benzamide-1-methyl-9H-b-carboline], the IC50 at DYRK1A (duplicates) is 389 ± 32.6 nM. In addition, the inhibition at 0.3 µM on DYRK1A (compound at 300 nM, duplicates) turned out to be 48%. For the same molecule, on DYRK1A (setting [2]), the inhibition at 1 µM turned out to be 77%. Further, the “DYRK1A inhibition (result in words)” value at DYRK1A is recorded as “partially recovered”.
On to `Cc1nccc2c1[nH]c1cc(OC(=O)NC(C)C)ccc12` [1-12, 1-Methyl-9H-pyrido[3,4-b]indol-7-yl isopropylcarbamate], for which, on DYRK1A, the “DYRK1A inhibition (result in words)” value is recorded as “moderately active”, the inhibition at 0.3 µM was found to be 42% and the inhibition at 1 µM worked out at 69%.
